Results: US9617216B2, “Antifungal oxodihydropyridinecarbohydrazide derivative” (Daewoong Pharmaceutical Co., Ltd., priority 2013, dated 2017)
In brackets after ≈: the same amount, converted by molar mass.

System: Candida albicans
Test: In vitro antifungal activity test (MIC), Candida albicans
Assay type: cell-based
Settings: Candida albicans; concentration at which growth is inhibited by 80% vs negative control; 35° C., 24 hours, RPMI 1640, alama blue
Procedure: The antifungal activities of the compounds of the present invention were evaluated using Candida albicans as yeast fungus, and Aspergillus fumigatus as a filamentous fungus. The above fungi used were all purchased from American Type Culture Collection (ATCC). The strains used in the experiment were inoculated into a Sabouraud dextrose agar medium, and then cultured at 35° C. for a sufficient period of time, e.g., 24 hours for Candida albicans, and about 7 days for Aspergillus fumigatus. As for Candida albicans, about 5 to 7 single colonies were taken from the cultured medium, sufficiently suspended in 1 ml of 0.85% sterile saline solution, and adjusted to have an optical density of 0.095 to 0.107 at 530 nm. A preparation of a strain diluent was diluted in Roswell park memorial institute (RPMI) 1640 medium at a 1:10 ratio, and the resultant was diluted again at a 1:100 ratio to obtain an inoculation preparation for Candida albicans with a concentration of 1.0×10^3 to 5.0×10^3 CFU/mL. As for Aspergillus fumigatus, the cultured Sabouraud dextrose agar was added with 1 mL of 0.2% Tween 20 diluted with 0.85% sterile saline solution, and then the plate was shaken to detach conidium from the plate. The solution collected from the plate surface was transferred into a sterile tube, and placed at room temperature for 5 minutes to deposit heavy substances. The resulting supernatant was transferred into the sterile tube, sufficiently suspended for about 15 seconds, and prepared a strain diluent with a concentration of 0.4×10^6 to 5.0×10^6 CFU/mL using a hemocytometer. The thus prepared strain diluent was diluted in RPMI 1640 medium at a 1:100 ratio to obtain an inoculation preparation for Aspergillus fumigatus. Candida albicans was cultured at 35° C. for 24 hours and Aspergillus fumigatus was cultured at 35° C. for 48 hours, and the concentrations, at which growth is inhibited by 80% or 50% compared to a negative control group, were determined using alama blue color developing reagent. All experiments were repeated twice for each concentration, and the results of antifungal activities (MIC80 MIC50 μg/mL) are shown in Tables 1 to 2.

MIC80 [µg/mL] | Structure (SMILES)
0.1 (≈ 0.383 µM) | Cn1cc(C(=O)NNc2ccc(F)cc2)ccc1=O [Example 3, N′-(4-fluorophenyl)-1-methyl-6-oxo-1,6-dihydropyridine-3-carbohydrazide]
0.11 (≈ 0.396 µM) | Cn1cc(C(=O)NNc2cccc(Cl)c2)ccc1=O [Example 4, N′-(3-chlorophenyl)-1-methyl-6-oxo-1,6-dihydropyridine-3-carbohydrazide]
0.05 (≈ 0.18 µM) | Cn1cc(C(=O)NNc2ccc(Cl)cc2)ccc1=O [Example 5, N′-(4-chlorophenyl)-1-methyl-6-oxo-1,6-dihydropyridine-3-carbohydrazide]
0.1 (≈ 0.373 µM) | Cn1cc(C(=O)NNc2cccc(C#N)c2)ccc1=O [Example 6, N′-(3-cyanophenyl)-1-methyl-6-oxo-1,6-dihydropyridine-3-carbohydrazide]
0.84 (≈ 3.13 µM) | Cn1cc(C(=O)NNc2ccc(C#N)cc2)ccc1=O [Example 7, N′-(4-cyanophenyl)-1-methyl-6-oxo-1,6-dihydropyridine-3-carbohydrazide]
0.24 (≈ 0.771 µM) | Cn1cc(C(=O)NNc2cccc(C(F)(F)F)c2)ccc1=O [Example 8, 1-methyl-6-oxo-N′-(3-(trifluoromethyl)phenyl)-1,6-dihydropyridine-3-carbohydrazide]
1.95 (≈ 6.26 µM) | Cn1cc(C(=O)NNc2ccc(C(F)(F)F)cc2)ccc1=O [Example 9, 1-methyl-6-oxo-N′-(4-(trifluoromethyl)phenyl)-1,6-dihydropyridine-3-carbohydrazide]
0.22 (≈ 0.788 µM) | Cn1cc(C(=O)NNc2ccc(F)c(F)c2)ccc1=O [Example 12, N′-(3,4-difluorophenyl)-1-methyl-6-oxo-1,6-dihydropyridine-3-carbohydrazide]
0.06 (≈ 0.192 µM) | Cn1cc(C(=O)NNc2ccc(Cl)c(Cl)c2)ccc1=O [Example 14, N′-(3,4-dichlorophenyl)-1-methyl-6-oxo-1,6-dihydropyridine-3-carbohydrazide]
0.12 (≈ 0.406 µM) | Cn1cc(C(=O)NNc2ccc(F)c(Cl)c2)ccc1=O [Example 17, N′-(3-chloro-4-fluorophenyl)-1-methyl-6-oxo-1,6-dihydropyridine-3-carbohydrazide]
0.88 (≈ 3.14 µM) | Cn1cc(C(=O)NNc2ccc(F)nc2F)ccc1=O [Example 19, N′-(2,6-difluoropyridine-3-yl)-1-methyl-6-oxo-1,6-dihydropyridine-3-carbohydrazide]
0.22 (≈ 0.796 µM) | Cc1nc(F)ccc1NNC(=O)c1ccc(=O)n(C)c1 [Example 20, N′-(6-fluoro-2-methylpyridine-3-yl)-1-methyl-6-oxo-1,6-dihydropyridine-3-carbohydrazide]
0.23 (≈ 0.778 µM) | Cn1cc(C(=O)NNc2cccc(F)c2)c(Cl)cc1=O [Example 22, 4-chloro-N′-(3-fluorophenyl)-1-methyl-6-oxo-1,6-dihydropyridine-3-carbohydrazide]
0.46 (≈ 1.56 µM) | Cn1cc(C(=O)NNc2ccc(F)cc2)c(Cl)cc1=O [Example 23, 4-chloro-N′-(4-fluorophenyl)-1-methyl-6-oxo-1,6-dihydropyridine-3-carbohydrazide]
0.23 (≈ 0.778 µM) | Cn1cc(C(=O)NNc2ccc(F)cc2)cc(Cl)c1=O [Example 25, 5-chloro-N′-(4-fluorophenyl)-1-methyl-6-oxo-1,6-dihydropyridine-3-carbohydrazide]
0.49 (≈ 1.57 µM) | Cn1cc(C(=O)NNc2ccc(Cl)cc2)cc(Cl)c1=O [Example 27, 5-chloro-N′-(4-chlorophenyl)-1-methyl-6-oxo-1,6-dihydropyridine-3-carbohydrazide]

MIC80 [µg/mL] | Structure (SMILES)
0.12 (≈ 0.396 µM) | Cn1cc(C(=O)NNc2cccc(C#N)c2)cc(Cl)c1=O [Example 28, 5-chloro-N′-(3-cyanophenyl)-1-methyl-6-oxo-1,6-dihydropyridine-3-carbohydrazide]
0.47 (≈ 1.55 µM) | Cn1cc(C(=O)NNc2ccc(C#N)cc2)cc(Cl)c1=O [Example 29, 5-chloro-N′-(4-cyanophenyl)-1-methyl-6-oxo-1,6-dihydropyridine-3-carbohydrazide]
0.31 (≈ 0.988 µM) | Cn1cc(C(=O)NNc2ccc(F)cc2F)cc(Cl)c1=O [Example 30, 5-chloro-N′-(2,4-difluorophenyl)-1-methyl-6-oxo-1,6-dihydropyridine-3-carbohydrazide]
0.06 (≈ 0.191 µM) | Cn1cc(C(=O)NNc2ccc(F)c(F)c2)cc(Cl)c1=O [Example 31, 5-chloro-N′-(3,4-difluorophenyl)-1-methyl-6-oxo-1,6-dihydropyridine-3-carbohydrazide]
0.03 (≈ 0.0956 µM) | Cn1cc(C(=O)NNc2cc(F)cc(F)c2)cc(Cl)c1=O [Example 32, 5-chloro-N′-(3,5-difluorophenyl)-1-methyl-6-oxo-1,6-dihydropyridine-3-carbohydrazide]
0.16 (≈ 0.381 µM) | Cn1cc(C(=O)NNc2cccc(F)c2)c(Nc2ccc(C(F)(F)F)cc2)cc1=O [Example 35, N′-(3-fluorophenyl)-1-methyl-6-oxo-4-((4-(trifluoromethyl)phenyl)amino)-1,6-dihydropyridine-3-carbohydrazide]
1.31 (≈ 3.12 µM) | Cn1cc(C(=O)NNc2ccc(F)cc2)c(Nc2ccc(C(F)(F)F)cc2)cc1=O [Example 36, N′-(4-fluorophenyl)-1-methyl-6-oxo-4-((4-(trifluoromethyl)phenyl)amino)-1,6-dihydropyridine-3-carbohydrazide]
0.07 (≈ 0.207 µM) | Cn1cc(C(=O)NNc2cccc(F)c2)cc(-c2ccccn2)c1=O [Example 41, N′-(3-fluorophenyl)-1-methyl-6-oxo-5-(pyridine-2-yl)-1,6-dihydropyridine-3-carbohydrazide]
0.07 (≈ 0.205 µM) | O=C(NNc1cccc(F)c1)c1ccc(=O)n(-c2ccccc2F)c1 [Example 42, 1-(2-fluorophenyl)-N′-(3-fluorophenyl)-6-oxo-1,6-dihydropyridine-3-carbohydrazide]
0.13 (≈ 0.381 µM) | O=C(NNc1cccc(F)c1)c1ccc(=O)n(-c2cccc(F)c2)c1 [Example 43, N′,1-Bis(3-fluorophenyl)-6-oxo-1,6-dihydropyridine-3-carbohydrazide]
0.13 (≈ 0.381 µM) | O=C(NNc1cccc(F)c1)c1ccc(=O)n(-c2ccc(F)cc2)c1 [Example 44, N′-(3-fluorophenyl)-1-(4-fluorophenyl)-6-oxo-1,6-dihydropyridine-3-carbohydrazide]
0.61 (≈ 1.56 µM) | O=C(NNc1ccc(F)cc1)c1ccc(=O)n(-c2ccc(C(F)(F)F)cc2)c1 [Example 45, N′-(4-fluorophenyl)-6-oxo-1-(4-(trifluoromethyl)phenyl)-1,6-dihydropyridine-3-carbohydrazide]
0.31 (≈ 0.792 µM) | O=C(NNc1ccc(F)cc1)c1ccc(=O)n(-c2cccc(C(F)(F)F)c2)c1 [Example 46, N′-(4-fluorophenyl)-6-oxo-1-(3-(trifluoromethyl)phenyl)-1,6-dihydropyridine-3-carbohydrazide]
0.56 (≈ 1.57 µM) | O=C(NNc1ccc(F)cc1)c1ccc(=O)n(-c2cccc(Cl)c2)c1 [Example 47, 1-(3-chlorophenyl)-N′-(4-fluorophenyl)-6-oxo-1,6-dihydropyridine-3-carbohydrazide]
0.08 (≈ 0.197 µM) | O=C(NNc1cccc(F)c1)c1ccc(=O)n(Cc2ccc(C(F)(F)F)nc2)c1 [Example 50, N′-(3-fluorophenyl)-6-oxo-1-((6-(trifluoromethyl)pyridine-3-yl)methyl)-1,6-dihydropyridine-3-carbohydrazide]
0.16 (≈ 0.394 µM) | O=C(NNc1ccc(F)cc1)c1ccc(=O)n(Cc2ccc(C(F)(F)F)nc2)c1 [Example 51, N′-(4-fluorophenyl)-6-oxo-1-((6-(trifluoromethyl)pyridine-3-yl)methyl)-1,6-dihydropyridine-3-carbohydrazide]
